Here are results for 13 compounds from patent US11331369B2, “Endoparasitic depsipeptides” (Zoetis Services LLC, priority 2017, dated 2022).

This test deals with microfilariae of Dirofilaria immitis. In words: Dirofilaria immitis, Microfilaria (DiMF) In vitro Assay. The format is cell-based. The following applies: 72 h, read-out: DiMF Minimum Effective Dose (MED), approximately 72 hours incubation, microfilariae assessed for survival or paralysis.

Structures are written as SMILES.

As for `Cc1cnn(Cc2ccc(C[C@H]3OC(=O)[C@H](CC(C)C)N(C)C(=O)[C@@H](C)OC(=O)[C@H](CC(C)C)N(C)C(=O)[C@@H](Cc4ccc(Cn5cc(Br)cn5)cc4)OC(=O)[C@H](CC(C)C)N(C)C(=O)[C@@H](C)OC(=O)[C@H](CC(C)C)N(C)C3=O)cc2)c1` [Example 1a-24, (3S,6R,9S,12R,15S,18R,21S,24R)-6-(4-((4-bromo-1H-pyrazol-1-yl)methyl)benzyl)-3,9,15,21-tetraisobutyl-4,10,12,16,22,24-hexamethyl-18-(4-((4-methyl-1H-pyrazol-1-yl)methyl)benzyl)-1,7,13,19-tetraoxa-4,10,16,22-tetraazacyclotetracosan-2,5,8,11,14,17,20,23-octaone], the minimal effective concentration was 0.001 to 0.01 µM.

As to `Cc1cnn(Cc2ccc(C[C@H]3OC(=O)[C@H](CC(C)C)N(C)C(=O)[C@@H](C)OC(=O)[C@H](CC(C)C)N(C)C(=O)[C@@H](Cc4ccc(Cn5nc(C)c(S(=O)(=O)N6CCCCC6)c5C)cc4)OC(=O)[C@H](CC(C)C)N(C)C(=O)[C@@H](C)OC(=O)[C@H](CC(C)C)N(C)C3=O)cc2)c1` [Example 1a-25, (3S,6R,9S,12R,15S,18R,21S,24R)-6-(4-((3,5-dimethyl-4-(piperidin-1-ylsulfonyl)-1H-pyrazol-1-yl)methyl)benzyl)-3,9,15,21-tetraisobutyl-4,10,12,16,22,24-hexamethyl-18-(4-((4-methyl-1H-pyrazol-1-yl)methyl)benzyl)-1,7,13,19-tetraoxa-4,10,16,22-tetraazacyclotetracosan-2,5,8,11,14,17,20,23-octaone], the minimal effective concentration was 0.01 to 0.1 µM.

`Cc1cnn(Cc2ccc(C[C@H]3OC(=O)[C@H](CC(C)C)N(C)C(=O)[C@@H](C)OC(=O)[C@H](CC(C)C)N(C)C(=O)[C@@H](Cc4ccc(Cn5ccc(-c6ccccc6)n5)cc4)OC(=O)[C@H](CC(C)C)N(C)C(=O)[C@@H](C)OC(=O)[C@H](CC(C)C)N(C)C3=O)cc2)c1` [Example 1a-28, (3S,6R,9S,12R,15S,18R,21S,24R)-3,9,15,21-tetraisobutyl-4,6,10,16,18,22-hexamethyl-12-(4-((4-methyl-1H-pyrazol-1-yl)methyl)benzyl)-24-(4-((3-phenyl-1H-pyrazol-1-yl)methyl)benzyl)-1,7,13,19-tetraoxa-4,10,16,22-tetraazacyclotetracosan-2,5,8,11,14,17,20,23-octaone]: the minimal effective concentration lay in the range of 0.01 to 0.1 µM.

With `Cc1cnn(Cc2ccc(C[C@H]3OC(=O)[C@H](CC(C)C)N(C)C(=O)[C@@H](C)OC(=O)[C@H](CC(C)C)N(C)C(=O)[C@@H](Cc4ccc(Cn5ccc(C(F)(F)F)n5)cc4)OC(=O)[C@H](CC(C)C)N(C)C(=O)[C@@H](C)OC(=O)[C@H](CC(C)C)N(C)C3=O)cc2)c1` [Example 1a-29, (3S,6R,9S,12R,15S,18R,21S,24R)-3,9,15,21-tetraisobutyl-4,6,10,16,18,22-hexamethyl-12-(4-((4-methyl-1H-pyrazol-1-yl)methyl)benzyl)-24-(4-((3-(trifluoromethyl)-1H-pyrazol-1-yl)methyl)benzyl)-1,7,13,19-tetraoxa-4,10,16,22-tetraazacyclotetracosan-2,5,8,11,14,17,20,23-octaone], the minimal effective concentration was in the range of 0.01 to 0.1 µM.

In the case of `Cc1cnn(Cc2ccc(C[C@H]3OC(=O)[C@H](CC(C)C)N(C)C(=O)[C@@H](C)OC(=O)[C@H](CC(C)C)N(C)C(=O)[C@@H](Cc4ccc(Cn5cc(C(F)(F)F)cn5)cc4)OC(=O)[C@H](CC(C)C)N(C)C(=O)[C@@H](C)OC(=O)[C@H](CC(C)C)N(C)C3=O)cc2)c1` [Example 1a-30, (3S,6R,9S,12R,15S,18R,21S,24R)-3,9,15,21-tetraisobutyl-4,6,10,16,18,22-hexamethyl-12-(4-((4-methyl-1H-pyrazol-1-yl)methyl)benzyl)-24-(4-((4-(trifluoromethyl)-1H-pyrazol-1-yl)methyl)benzyl)-1,7,13,19-tetraoxa-4,10,16,22-tetraazacyclotetracosan-2,5,8,11,14,17,20,23-octaone], the minimal effective concentration lay in the range of 0.01 to 0.1 µM.

Consider `CC(C)C[C@H]1C(=O)O[C@H](Cc2ccc(Cn3cc(Br)c(C#N)n3)cc2)C(=O)N(C)[C@@H](CC(C)C)C(=O)O[C@H](C)C(=O)N(C)[C@@H](CC(C)C)C(=O)O[C@H](Cc2ccc(Cn3cc(N)cn3)cc2)C(=O)N(C)[C@@H](CC(C)C)C(=O)O[C@H](C)C(=O)N1C` [Example 1a-32, 1-(4-(((2R,5S,8R,11S,14R,17S,20R,23S)-14-(4-((4-amino-1H-pyrazol-1-yl)methyl)benzyl)-5,11,17,23-tetraisobutyl-4,8,10,16,20,22-hexamethyl-3,6,9,12,15,18,21,24-octaoxo-1,7,13,19-tetraoxa-4,10,16,22-tetraazacyclotetracosan-2-yl)methyl)benzyl)-4-bromo-1H-pyrazole-3-carbonitrile], for which the minimal effective concentration lay within 0.01 to 0.1 µM.

With `CC(C)C[C@H]1C(=O)O[C@H](Cc2ccc(Cn3nccc3Cl)cc2)C(=O)N(C)[C@@H](CC(C)C)C(=O)O[C@H](C)C(=O)N(C)[C@@H](CC(C)C)C(=O)O[C@H](Cc2ccc(Cn3ccc(Cl)n3)cc2)C(=O)N(C)[C@@H](CC(C)C)C(=O)O[C@H](C)C(=O)N1C` [Example 1a-46, (3S,6R,9S,12R,15S,18R,21S,24R)-6-(4-((3-chloro-1H-pyrazol-1-yl)methyl)benzyl)-18-(4-((5-chloro-1H-pyrazol-1-yl)methyl)benzyl)-3,9,15,21-tetraisobutyl-4,10,12,16,22,24-hexamethyl-1,7,13,19-tetraoxa-4,10,16,22-tetraazacyclotetracosan-2,5,8,11,14,17,20,23-octaone], the minimal effective concentration lay in the range of 0.001 to 0.01 µM.

In the case of `Cc1cc(CC#N)nn1Cc1ccc(C[C@H]2OC(=O)[C@H](CC(C)C)N(C)C(=O)[C@@H](C)OC(=O)[C@H](CC(C)C)N(C)C(=O)[C@@H](Cc3ccc(Cn4nc(CC#N)cc4C)cc3)OC(=O)[C@H](CC(C)C)N(C)C(=O)[C@@H](C)OC(=O)[C@H](CC(C)C)N(C)C2=O)cc1` [Example 1b-7, 2,2′-((((((2R,5S,8R,11S,14R,17S,20R,23S)-5,11,17,23-tetraisobutyl-4,8,10,16,20,22-hexamethyl-3,6,9,12,15,18,21,24-octaoxo-1,7,13,19-tetraoxa-4,10,16,22-tetraazacyclotetracosane-2,14-diyl)bis(methylene))bis(4,1-phenylene))bis(methylene))bis(5-methyl-1H-pyrazole-1,3-diyl))diacetonitrile], the minimal effective concentration lay within 0.001 to 0.01 µM.

As to `CC(C)C[C@H]1C(=O)O[C@H](Cc2ccc(Cn3nc(CO)cc3C3CC3)cc2)C(=O)N(C)[C@@H](CC(C)C)C(=O)O[C@H](C)C(=O)N(C)[C@@H](CC(C)C)C(=O)O[C@H](Cc2ccc(Cn3nc(CO)cc3C3CC3)cc2)C(=O)N(C)[C@@H](CC(C)C)C(=O)O[C@H](C)C(=O)N1C` [Example 1b-8, (3S,6R,9S,12R,15S,18R,21S,24R)-6,18-bis(4-((5-cyclopropyl-3-(hydroxymethyl)-1H-pyrazol-1-yl)methyl)benzyl)-3,9,15,21-tetraisobutyl-4,10,12,16,22,24-hexamethyl-1,7,13,19-tetraoxa-4,10,16,22-tetraazacyclotetracosan-2,5,8,11,14,17,20,23-octaone], the minimal effective concentration fell in the range of 0.001 to 0.01 µM.

With `CC(C)C[C@H]1C(=O)O[C@H](Cc2ccc(Cn3cc(-c4nccs4)cn3)cc2)C(=O)N(C)[C@@H](CC(C)C)C(=O)O[C@H](C)C(=O)N(C)[C@@H](CC(C)C)C(=O)O[C@H](Cc2ccc(Cn3cc(-c4nccs4)cn3)cc2)C(=O)N(C)[C@@H](CC(C)C)C(=O)O[C@H](C)C(=O)N1C` [Example 1b-13, (3S,6R,9S,12R,15S,18R,21S,24R)-3,9,15,21-tetraisobutyl-4,6,10,16,18,22-hexamethyl-12,24-bis(4-((4-(thiazol-2-yl)-1H-pyrazol-1-yl)methyl)benzyl)-1,7,13,19-tetraoxa-4,10,16,22-tetraazacyclotetracosan-2,5,8,11,14,17,20,23-octaone], the minimal effective concentration lay within 0.01 to 0.1 µM.

Turning to `CSc1cnn(Cc2ccc(C[C@H]3OC(=O)[C@H](CC(C)C)N(C)C(=O)[C@@H](C)OC(=O)[C@H](CC(C)C)N(C)C(=O)[C@@H](Cc4ccc(Cn5cc(SC)cn5)cc4)OC(=O)[C@H](CC(C)C)N(C)C(=O)[C@@H](C)OC(=O)[C@H](CC(C)C)N(C)C3=O)cc2)c1` [Example 1b-20, (3S,6R,9S,12R,15S,18R,21S,24R)-3,9,15,21-tetraisobutyl-4,6,10,16,18,22-hexamethyl-12,24-bis[[4-[(4-methylsulfanylpyrazol-1-yl)methyl]phenyl]methyl]-1,7,13,19-tetraoxa-4,10,16,22-tetrazacyclotetracosane-2,5,8,11,14,17,20,23-octaone], the minimal effective concentration was in the range of 0.01 to 0.1 µM.

With `CC(C)C[C@H]1C(=O)O[C@H](Cc2ccc(Cn3cc(/C(N)=N/O)cn3)cc2)C(=O)N(C)[C@@H](CC(C)C)C(=O)O[C@H](C)C(=O)N(C)[C@@H](CC(C)C)C(=O)O[C@H](Cc2ccc(Cn3cc(C(N)=NO)cn3)cc2)C(=O)N(C)[C@@H](CC(C)C)C(=O)O[C@H](C)C(=O)N1C` [Example 1b-22, N′-hydroxy-1-[[4-[[(2R,5S,8R,11S,14R,17S,20R,23S)-14-[[4-[[4-[(Z)—N′-hydroxycarbamimidoyl]pyrazol-1-yl]methyl]phenyl]methyl]-5,11,17,23-tetraisobutyl-4,8,10,16,20,22-hexamethyl-3,6,9,12,15,18,21,24-octaoxo-1,7,13,19-tetraoxa-4,10,16,22-tetrazacyclotetracos-2-yl]methyl]phenyl]methyl]pyrazole-4-carboxamidine], the minimal effective concentration is 0.01 to 0.1 µM.

For the compound `CCc1cnn(Cc2ccc(C[C@H]3OC(=O)[C@H](CC(C)C)N(C)C(=O)[C@@H](C)OC(=O)[C@H](CC(C)C)N(C)C(=O)[C@@H](Cc4ccc(Cn5cc(CC)cn5)cc4)OC(=O)[C@H](CC(C)C)N(C)C(=O)[C@@H](C)OC(=O)[C@H](CC(C)C)N(C)C3=O)cc2)c1` [Example 1b-31, (3S,6R,9S,12R,15S,18R,21S,24R)-6,18-bis[[4-[(4-ethylpyrazol-1-yl)methyl]phenyl]methyl]-3,9,15,21-tetraisobutyl-4, 10,12,16,22,24-hexamethyl-1,7,13,19-tetraoxa-4,10,16,22-tetrazacyclotetracosane-2,5,8,11,14,17,20,23-octaone], the minimal effective concentration lay in the range of 0.01 to 0.1 µM.
